Results taken from the NIST ThermoML archive (doi:10.1016/j.jct.2017.12.023).

Test: refractive index (Na D-line) (dimensionless); xn = mol fraction of the nth substance listed
Conditions: 100 kPa, Liquid, Standard Abbe refractometry

CCOS(=O)(=O)[O-].CCn1cc[n+](C)c1 [1-ethyl-3-methylimidazolium ethyl sulfate] + CN1CCCC1=O
refractive index
Conditions	288.15 K	293.15 K	298.15 K	303.15 K	308.15 K	313.15 K	318.15 K	323.15 K	328.15 K	333.15 K
x1 = 0.1009	1.47616	1.47418	1.47223	1.47026	1.46833	1.46634	1.4644	1.46246	1.46054	1.45863
x1 = 0.2012	1.47863	1.47679	1.47496	1.47313	1.4713	1.46948	1.46772	1.4659	1.46409	1.46232
x1 = 0.3021	1.47981	1.47807	1.47633	1.4746	1.47285	1.47118	1.4695	1.46777	1.46607	1.46438
x1 = 0.4012	1.48047	1.47881	1.47714	1.47547	1.47384	1.47225	1.47069	1.46906	1.46742	1.46584
x1 = 0.4973	1.48086	1.47925	1.47766	1.47608	1.47453	1.473	1.47143	1.46985	1.46828	1.46677
x1 = 0.596	1.48094	1.47939	1.47787	1.47635	1.47488	1.47343	1.47195	1.47045	1.46895	1.46746
x1 = 0.6998	1.48099	1.47951	1.47804	1.47659	1.47517	1.47375	1.47229	1.47084	1.46939	1.46794
x1 = 0.7961	1.48127	1.47983	1.47841	1.47701	1.47561	1.47423	1.47284	1.47143	1.47005	1.46865
x1 = 0.8821	1.48147	1.48006	1.47867	1.47728	1.47592	1.47453	1.47317	1.4718	1.47044	1.4691
x1 = 1	1.48155	1.48018	1.47882	1.47746	1.47611	1.47474	1.47341	1.47206	1.47075	1.46943
